# Laboratory results reported in US9833497B2, “Human originated EGF domain proteins and use of the same” (CHENGDU SOURCEBIO LIMITED-LIABILITY COMPANY, priority 2013, dated 2017).
# Tests used:
# Format in all cases: cell-based
# E. coli DH5α = test: Antibacterial activity: MIC and growth curve against E. coli DH5α in 96-well plate; conditions: minimal inhibitory concentration against E. coli DH5α; 96-well plate, 5×10^5 CFU/mL, 37° C., judged after 8 h
# Summary of the method: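 Log-phase bacteria (OD600 ~0.5) resuspended in LB at 5×10^5 CFU/mL, exposed to recombinant protein at 50, 25, 12.5 μg/mL final in triplicate, 37 °C shaking at 175 rpm. OD600 read every 30 min; MIC is lowest concentration showing no growth.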
# E. coli BL21 = test: MIC against Gram-negative bacteria: E. coli BL21; conditions: 5×10^5 CFU/mL
# Summary of the method: (§1)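 First, colonies from LB agar were grown in LB at 37° C, 185 rpm, to McFarland turbidity 0.5, then centrifuged and resuspended in fresh LB. Next, wells received 5×10^5 CFU/mL bacteria plus two-fold serially diluted EGF domain protein (triplicate). Finally, plates were shaken at 37° C and the no-growth concentration taken as MIC.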
# Pseudomonas aeruginosa = test: MIC against Gram-negative bacteria: Pseudomonas aeruginosa; conditions: 5×10^5 CFU/mL
# Summary of the method: as §1
# Klebsiella pneumonia = test: MIC against Gram-negative bacteria: Klebsiella pneumonia; conditions: 5×10^5 CFU/mL
# Summary of the method: as §1
# Enterobacter cloacae = test: MIC against Gram-negative bacteria: Enterobacter cloacae; conditions: 5×10^5 CFU/mL
# Summary of the method: as §1
# Aeromonas hydrophila = test: MIC against Gram-negative bacteria: Aeromonas hydrophila; conditions: 5×10^5 CFU/mL
# Summary of the method: as §1
# Citrobacter diversus = test: MIC against Gram-negative bacteria: Citrobacter diversus; conditions: 5×10^5 CFU/mL
# Summary of the method: as §1
# Moraxella catarrhalis = test: MIC against Gram-negative bacteria: Moraxella catarrhalis; conditions: 5×10^5 CFU/mL
# Summary of the method: as §1
# Proteus mirabilis = test: MIC against Gram-negative bacteria: Proteus mirabilis; conditions: 5×10^5 CFU/mL
# Summary of the method: as §1
# Proteus vulgaris = test: MIC against Gram-negative bacteria: Proteus vulgaris; conditions: 5×10^5 CFU/mL
# Summary of the method: as §1
# Serratia marcescens = test: MIC against Gram-negative bacteria: Serratia marcescens; conditions: 5×10^5 CFU/mL
# Summary of the method: as §1
# [1] = E. coli BL21, 96-well plate, 37° C., 10 h
# [2] = Pseudomonas aeruginosa, 96-well plate, 37° C., 10 h
# [3] = Klebsiella pneumonia, 96-well plate, 37° C., 10 h
# [4] = Enterobacter cloacae, 96-well plate, 37° C., 10 h
# [5] = Aeromonas hydrophila, 96-well plate, 37° C., 10 h
# [6] = Citrobacter diversus, 96-well plate, 37° C., 10 h
# [7] = Moraxella catarrhalis, 96-well plate, 37° C., 10 h
# [8] = Proteus mirabilis, 96-well plate, 37° C., 10 h
# [9] = Proteus vulgaris, 96-well plate, 37° C., 10 h
# [10] = Serratia marcescens, 96-well plate, 37° C., 10 h
# [11] = 10 h cultivation at 37° C., two-fold serial dilution
# [12] = E. coli BL21, 10 h cultivation at 37° C.
substance,measurement,setting,value
PRT506 (CNCSVAGSVSDGCTDEGQCHCVPGVAGKRCDRCAHGFYAYQDGSCTP; listed as Homo sapiens),MIC,E. coli DH5α,25 µg/mL
same,MIC against E. coli BL21,"E. coli BL21; 96-well plate, 37° C., 10 h",12.5 µg/mL
same,MIC against P. aeruginosa,"Pseudomonas aeruginosa; 96-well plate, 37° C., 10 h",25 µg/mL
same,MIC against K. pneumonia,"Klebsiella pneumonia; 96-well plate, 37° C., 10 h",50 µg/mL
same,MIC against E. cloacae,"Enterobacter cloacae; 96-well plate, 37° C., 10 h",25 µg/mL
same,MIC against A. hydrophila,"Aeromonas hydrophila; 96-well plate, 37° C., 10 h",12.5 µg/mL
same,MIC against C. diversus,"Citrobacter diversus; 96-well plate, 37° C., 10 h",25 µg/mL
same,MIC against M. catarrhalis,"Moraxella catarrhalis; 96-well plate, 37° C., 10 h",50 µg/mL
same,MIC against P. mirabilis,"Proteus mirabilis; 96-well plate, 37° C., 10 h",25 µg/mL
same,MIC against P. vulgaris,"Proteus vulgaris; 96-well plate, 37° C., 10 h",12.5 µg/mL
same,MIC against S. marcescens,"Serratia marcescens; 96-well plate, 37° C., 10 h",12.5 µg/mL
PRT1208 (VHHGCEDDPCPEGSECVSDPWEEKHTCVCPSGRFGQCP; listed as Homo sapiens),MIC,E. coli DH5α,12.5 µg/mL
same,MIC against E. coli BL21,E. coli BL21; [1],25 µg/mL
same,MIC against P. aeruginosa,Pseudomonas aeruginosa; [2],12.5 µg/mL
same,MIC against K. pneumonia,Klebsiella pneumonia; [3],25 µg/mL
same,MIC against E. cloacae,Enterobacter cloacae; [4],12.5 µg/mL
same,MIC against A. hydrophila,Aeromonas hydrophila; [5],50 µg/mL
same,MIC against C. diversus,Citrobacter diversus; [6],25 µg/mL
same,MIC against M. catarrhalis,Moraxella catarrhalis; [7],12.5 µg/mL
same,MIC against P. mirabilis,Proteus mirabilis; [8],50 µg/mL
same,MIC against P. vulgaris,Proteus vulgaris; [9],25 µg/mL
same,MIC against S. marcescens,Serratia marcescens; [10],12.5 µg/mL
PRT1107 (LMPLCWSKPCHNNATCEDSVDNYTCHCWPGYTGAQCE; listed as Homo sapiens),MIC,E. coli DH5α,12.5 µg/mL
same,MIC E. coli BL21,E. coli BL21; [11],50 µg/mL
same,MIC P. aeruginosa,Pseudomonas aeruginosa; [11],12.5 µg/mL
same,MIC K. pneumonia,Klebsiella pneumonia; [11],50 µg/mL
same,MIC E. cloacae,Enterobacter cloacae; [11],25 µg/mL
same,MIC A. hydrophila,Aeromonas hydrophila; [11],12.5 µg/mL
same,MIC C. diversus,Citrobacter diversus; [11],50 µg/mL
same,MIC M. catarrhalis,Moraxella catarrhalis; [11],12.5 µg/mL
same,MIC P. mirabilis,Proteus mirabilis; [11],50 µg/mL
same,MIC P. vulgaris,Proteus vulgaris; [11],12.5 µg/mL
same,MIC S. marcescens,Serratia marcescens; [11],25 µg/mL
PRT1411 (SVDNCPSNCYGNGDCISGTCHCFLGFLGPDCG; listed as Homo sapiens),MIC,E. coli DH5α,12.5 µg/mL
same,MIC against E. coli BL21,E. coli BL21; [12],25 µg/mL
same,MIC against P. aeruginosa,"Pseudomonas aeruginosa; Pseudomonas aeruginosa, 10 h cultivation at 37° C.",12.5 µg/mL
same,MIC against K. pneumonia,"Klebsiella pneumonia; Klebsiella pneumonia, 10 h cultivation at 37° C.",25 µg/mL
same,MIC against E. cloacae,"Enterobacter cloacae; Enterobacter cloacae, 10 h cultivation at 37° C.",12.5 µg/mL
same,MIC against A. hydrophila,"Aeromonas hydrophila; Aeromonas hydrophila, 10 h cultivation at 37° C.",12.5 µg/mL
same,MIC against C. diversus,"Citrobacter diversus; Citrobacter diversus, 10 h cultivation at 37° C.",12.5 µg/mL
same,MIC against M. catarrhalis,"Moraxella catarrhalis; Moraxella catarrhalis, 10 h cultivation at 37° C.",12.5 µg/mL
same,MIC against P. mirabilis,"Proteus mirabilis; Proteus mirabilis, 10 h cultivation at 37° C.",12.5 µg/mL
same,MIC against P. vulgaris,"Proteus vulgaris; Proteus vulgaris, 10 h cultivation at 37° C.",25 µg/mL
same,MIC against S. marcescens,"Serratia marcescens; Serratia marcescens, 10 h cultivation at 37° C.",12.5 µg/mL
PRT805 (FGQNCSQDCPCHHGGQCDHVTGQCHCTAGYMGDRCQ; listed as Homo sapiens),MIC,E. coli DH5α,12.5 µg/mL
same,MIC (μg/mL) E. coli BL21,E. coli BL21; [12],50 µg/mL
same,MIC (μg/mL) P. aeruginosa,"Pseudomonas aeruginosa; P. aeruginosa, 10 h cultivation at 37° C.",12.5 µg/mL
same,MIC (μg/mL) K. pneumonia,"Klebsiella pneumonia; K. pneumonia, 10 h cultivation at 37° C.",12.5 µg/mL
same,MIC (μg/mL) E. cloacae,"Enterobacter cloacae; E. cloacae, 10 h cultivation at 37° C.",12.5 µg/mL
same,MIC (μg/mL) A. hydrophila,"Aeromonas hydrophila; A. hydrophila, 10 h cultivation at 37° C.",12.5 µg/mL
same,MIC (μg/mL) C. diversus,"Citrobacter diversus; C. diversus, 10 h cultivation at 37° C.",12.5 µg/mL
same,MIC (μg/mL) M. catarrhalis,"Moraxella catarrhalis; M. catarrhalis, 10 h cultivation at 37° C.",50 µg/mL
same,MIC (μg/mL) P. mirabilis,"Proteus mirabilis; P. mirabilis, 10 h cultivation at 37° C.",12.5 µg/mL
same,MIC (μg/mL) P. vulgaris,"Proteus vulgaris; P. vulgaris, 10 h cultivation at 37° C.",50 µg/mL
same,MIC (μg/mL) S. marcescens,"Serratia marcescens; S. marcescens, 10 h cultivation at 37° C.",12.5 µg/mL
PRT1269 (DIDECQTRNGGCDHFCKNIVGSFDCGCKKGFKLLTDEKSCQ; listed as Homo sapiens),MIC,E. coli DH5α,12.5 µg/mL
same,MIC against E. coli BL21,E. coli BL21; [1],50 µg/mL
same,MIC against P. aeruginosa,Pseudomonas aeruginosa; [2],25 µg/mL
same,MIC against K. pneumonia,Klebsiella pneumonia; [3],12.5 µg/mL
same,MIC against E. cloacae,Enterobacter cloacae; [4],25 µg/mL
same,MIC against A. hydrophila,Aeromonas hydrophila; [5],50 µg/mL
same,MIC against C. diversus,Citrobacter diversus; [6],12.5 µg/mL
same,MIC against M. catarrhalis,Moraxella catarrhalis; [7],50 µg/mL
same,MIC against P. mirabilis,Proteus mirabilis; [8],12.5 µg/mL
same,MIC against P. vulgaris,Proteus vulgaris; [9],50 µg/mL
same,MIC against S. marcescens,Serratia marcescens; [10],12.5 µg/mL
PRT128 (CLPSYCEHGGECSQSWDTFSCDCLGTGYTGETC; listed as Homo sapiens),MIC,E. coli DH5α,12.5 µg/mL
same,MIC (μg/mL) E. coli BL21,E. coli BL21; [1],25 µg/mL
same,MIC (μg/mL) P. aeruginosa,Pseudomonas aeruginosa; [2],12.5 µg/mL
same,MIC (μg/mL) K. pneumonia,Klebsiella pneumonia; [3],25 µg/mL
same,MIC (μg/mL) E. cloacae,Enterobacter cloacae; [4],12.5 µg/mL
same,MIC (μg/mL) A. hydrophila,Aeromonas hydrophila; [5],12.5 µg/mL
same,MIC (μg/mL) C. diversus,Citrobacter diversus; [6],12.5 µg/mL
same,MIC (μg/mL) M. catarrhalis,Moraxella catarrhalis; [7],12.5 µg/mL
same,MIC (μg/mL) P. mirabilis,Proteus mirabilis; [8],12.5 µg/mL
same,MIC (μg/mL) P. vulgaris,Proteus vulgaris; [9],12.5 µg/mL
same,MIC (μg/mL) S. marcescens,Serratia marcescens; [10],50 µg/mL
